Data as given in patent US12492232B2, “Methods for producing proteins” (South Australian Health and Medical Research Institute …, priority 2018, dated 2025).
Entries after “also recorded” stand apart in the source; their conditions may differ.

What was measured:
[1] = tested on: CHO cells stably expressing Gaussia luciferase (GLuc); experiment: Secreted Gaussia luciferase assay in CHO cells stably expressing GLuc transfected with Rheb vectors; type: cell-based; settings: for increase in secreted Gaussia luciferase: day 7, normalised to cell number
Description: CHO cells stably expressing Firefly luciferase (FLuc) or Gaussia luciferase (GLuc) as indicated were transfected using Lipofectamine3000 with an empty vector (EV) or vectors for Rheb WT, S21L, T23M, G29S, Y35N or E40K and also treated with the mTOR inhibitor AZD8055 at 100 nM for the total duration where indicated. Fluc and GLuc assays were performed 24 h after transfection and then every 48 h for 7 days. Assay results are normalised to cell number. GLuc-CHO cells were harvested for SDS-PAGE and Western Blot analysis at the 168 h (7-day) time-point to probe for intracellular GLuc, FLAG (Rheb) and actin, as ‘loading control’. […] However, Rheb-T23M and —Y35N caused a significant 3-fold increase in secreted Gaussia luciferase that was also seen with E40K and was prevented by treatment with AZD8055 (C/D [histogram of day 7]). In (E), secreted GLuc was monitored every 4 h from 24 h to 60 h showing the rate of secretion of GLuc was higher when Rheb-T23M is expressed as compared to Rheb-Y35N. The pattern for intracellular levels of Gaussia luciferase (assessed by immunoblot of cell lysates harvested at 7 days post transfection) more closely resemble those intracellular firefly luciferase (F) with little change compared to either the empty vector or WT while still retaining heightened mTORC1 signalling as indicated by the elevated levels of P-S6K1 Thr389 compared to cells transfected with the empty vector. CHO cells expressing Rheb-T23M, Y35N and E40K show a small increases in general protein synthesis but a marked increase in secreted Gaussia protein that is blocked by mTOR inhibition. Thus, Rheb[T23M] selectively promotes production of the secreted protein GLuc in a process that requires mTOR signalling.
Constructs were introduced into CHO cells using Lipofectamine3000 (Life Technologies) according to the manufacturer's protocol. Cell lines stably expressing secreted luciferase were generated by cloning the GLuc gene with a signal sequence from Nanolight Technology (see paper sent with this version) and cloning this into the pcDNA4 commercially available vector where gene expression was driven by a CMV promoter. The subsequent vectors were transfected, using lipofectamine, into CHO-S freestyle suspension cells and grown in CD-CHO media and then stable transfectant pools selected by addition of zeocin antibiotic. Once stable pools had emerged these were subjected to limited dilution cloning to obtain a range of pools with different secreted GLuc expression levels. Methods as are described, for example, in Josse et al. (2009) Biotechnology and Bioengineering 105: 556-566.
For Gaussia luciferase, we employed the BioLux® Gaussia Luciferase Assay Kit (New England Biolabs (NEB), Cat. No. E3300S) and for firefly luciferase the Luciferase Assay System from Promega (Cat. No. E1500). Cells were grown in Ham's F12 medium F12 nutrient mix, Ham's (Life Technologies, Cat. No. 11765054).
CHO cells stably expressing Firefly luciferase (FLuc; which is cytoplasmic) or Gaussia luciferase (GLuc; which is secreted) as indicated were transfected using Lipofectamine3000 with an empty vector (EV) or vectors for Rheb WT, S21L, T23M, G29S, Y35N or E40K and treated with the mTOR inhibitor AZD8055 at 100 nM for the total duration where appropriate. Fluc and GLuc assays were performed at 24 h after transfection and then every 48 h for 7 days. Assay results were normalised to cell number. […]

TSC1/TSC2 = experiment: GAP assay: TSC1/TSC2-promoted hydrolysis of GTP bound to recombinant GST-Rheb; type: biochemical; settings: FLAG-TSC1, FLAG-TSC2, [α-32P]GTP, n=3
Text: FIGS. 1A-1B: Recombinant GST-Rheb proteins were subjected to GAP assay in the presence of FLAG-TSC1, FLAG-TSC2 and [α-^32P] GTP. GST-Rheb bound to GDP or GTP was pulled down using glutathione beads and the nucleotides were then separated by thin-layer chromatography and visualized by phosphorimager. The positions of GDP and GTP are shown (FIG. 1A). […] FIGS. 1C-1D: CHO cells were co-transfected using Lipofectamine 3000 with vectors encoding wildtype (WT) Rheb or the indicated mutants and TSC1/2 as indicated. 36 h after transfection, cells were transferred to Ham's F12 media lacking FBS for 16 h. Cells were the transferred to Dulbecco's phosphate-buffered saline (D-PBS, which lacks amino acids) for 1 h before cell lysates were harvested for SDS-PAGE and Western Blotting analysis using the indicated antibodies. […] This effect is consistent with lack of sensitivity of the mutant Rhebs to TSC1/TSC2. Thus the Rheb mutants S21L, T23M, G29S, Y35N and E40K promote mTORC1 signalling in the absence of upstream activation due to insensitivity to the GAP activity of the TSC complex.
A) Recombinant GST-Rheb proteins were subjected to GTPase assays in the presence of FLAG-TSC1, FLAG-TSC2 and [α-^32P]GTP. Nucleotide-bound GST-Rheb was purified from the reaction mixture using 20 μl glutathione bead slurry. Radioactive GDP and GTP were separated by thin-layer chromatography and visualized by phosphorimager.

mTORC1 signalling = mTORC1 signalling (Western blot, S6K1 and rpS6) in transfected CHO cells starved of serum and amino acids, with or without TSC1/2 co-transfection; type: cell-based; settings: for mTORC1 signalling in the absence of upstream activation: no serum 16 h, D-PBS 1 h, compared to empty vector and Rheb-WT; for mTORC1 signalling when co-transfected with TSC1/TSC2: no serum and amino acids
Description: GTP. GST-Rheb bound to GDP or GTP was pulled down using glutathione beads and the nucleotides were then separated by thin-layer chromatography and visualized by phosphorimager. The positions of GDP and GTP are shown (FIG. 1A). […] FIGS. 1C-1D: CHO cells were co-transfected using Lipofectamine 3000 with vectors encoding wildtype (WT) Rheb or the indicated mutants and TSC1/2 as indicated. 36 h after transfection, cells were transferred to Ham's F12 media lacking FBS for 16 h. Cells were the transferred to Dulbecco's phosphate-buffered saline (D-PBS, which lacks amino acids) for 1 h before cell lysates were harvested for SDS-PAGE and Western Blotting analysis using the indicated antibodies.

[2] = tested on: mTORC1 localisation at the lysosome; experiment: Immunofluorescence of mTOR and LAMP1 colocalisation in serum-starved transfected CHO cells; type: cell-based; settings: medium lacking FBS for 16 h
Description: (§1) 24 h after transfection cells were transferred to medium lacking FBS for 16 hours. Cells were fixed with 4% paraformaldehyde, permeabilized with 0.05% Triton X-100, blocked with 10% normal donkey serum before LAMP1 and then anti-mTOR antibodies were applied overnight. Alexa Fluor™ 488 and 594-labelled secondary antibodies were applied before cells were mounted and stained with DAPI.
as §1, with “h.” for “hours.”, “mTOR” for “then anti-mTOR”, “594” for “594-labelled”

ExpiCHO-S™ cells = experiment: Rabbit IgG secretion by ExpiCHO-S cells stably expressing Rheb variants (Easy-Titer Rabbit IgG Assay); type: cell-based; settings: single replicate; compared to Rheb-WT or Rheb-Y35N
Description: Materials and Methods: ExpiCHO-S™ cells were purchased from ThermoFischer Scientific and cultured in ExpiCHO™ Expression Medium at 37° C. at 8% CO2. […] Transfected cells were grown in 600 μg/mL […] for 6 weeks. Surviving cells were plated as single cells in a 96-well plate and monoclonal colonies selected for FLAG-Rheb expression.
Rabbit IgG secretion was determined using the ExpiCHO™ Expression system according to the manufacturer's instructions. Briefly, ExpiCHO™ cells expressing either endogenous Rheb or stably expressing exogenous Rheb were seeded at 6×10^6 cells/mL in 25 mL of ExpiCHO™ Expression Medium and transfected with 20 μg of a pcDNA3.1 vector encoding heavy and light chains of Rabbit IgG at a 1:2 ratio of heavy chain:light chain using ExpiFectamine™ CHO Reagent. 24 hours after transfection, cells were feed with ExpiCHO™ Feed and ExpiFectamine™ CHO Enhancer and transferred to 32° C., 5% CO2. Cells were allowed to grow for 10 days with 100 μL samples taken every day. After 10 days, Cells were pelleted by centrifugation at 4000×g for 30 minutes at 4° C. and the supernatant filtered through a […] PVFD filter and collected. IgG yield was determined using Easy-Titer™ Rabbit IgG Assay kit and calculated from a standard curve.

[3] = tested on: mTORC1 and ER Stress activation markers; experiment: Western blot for mTORC1 and ER stress activation markers in ExpiCHO cells stably expressing Rheb variants; type: cell-based
[4] = tested on: CHO cells stably expressing Firefly luciferase (FLuc); experiment: Firefly luciferase assay in CHO cells stably expressing FLuc transfected with Rheb vectors; type: cell-based; settings: day 7, normalised to cell number
Description: CHO cells stably expressing Firefly luciferase (FLuc) or Gaussia luciferase (GLuc) as indicated were transfected using Lipofectamine3000 with an empty vector (EV) or vectors for Rheb WT, S21L, T23M, G29S, Y35N or E40K and also treated with the mTOR inhibitor AZD8055 at 100 nM for the total duration where indicated. Fluc and GLuc assays were performed 24 h after transfection and then every 48 h for 7 days. Assay results are normalised to cell number. GLuc-CHO cells were harvested for SDS-PAGE and Western Blot analysis at the 168 h (7-day) time-point to probe for intracellular GLuc, FLAG (Rheb) and actin, as ‘loading control’. […] In (E), secreted GLuc was monitored every 4 h from 24 h to 60 h showing the rate of secretion of GLuc was higher when Rheb-T23M is expressed as compared to Rheb-Y35N. The pattern for intracellular levels of Gaussia luciferase (assessed by immunoblot of cell lysates harvested at 7 days post transfection) more closely resemble those intracellular firefly luciferase (F) with little change compared to either the empty vector or WT while still retaining heightened mTORC1 signalling as indicated by the elevated levels of P-S6K1 Thr389 compared to cells transfected with the empty vector. […]

Compound	hydrolysis of GTP bound to Rheb promoted by TSC1/TSC2 (TSC1/TSC2)	mTORC1 signalling in the absence of upstream activation (mTORC1 signalling)	mTORC1 signalling when co-transfected with TSC1/TSC2 (mTORC1 signalling)	also measured
COc1ccc(-c2ccc3c(N4CCOC[C@@H]4C)nc(N4CCOC[C@@H]4C)nc3n2)cc1CO [AZD8055, reference compound]	–	–	–	effect on the Rheb mutant-induced increase in secreted Gaussia luciferase ([1]; AZD8055 at 100 nM for the total duration): prevented
G29S: Rheb mutant G29S created by site-directed mutagenesis of human Rheb [Rheb G29S]	partial resistance; also recorded: a small degree of hydrolysis	increased mTORC1 signalling over both the empty vector and Rheb-WT	no reduction	–
G63A: Rheb mutant G63A tested in the GAP assay [Rheb G63A]	completely unable to promote hydrolysis of GTP; also recorded: did not promote hydrolysis of GTP	–	–	–
Q64L: Rheb mutant Q64L tested in the GAP assay [Rheb Q64L]	partial resistance; also recorded: a small degree of hydrolysis	–	–	–
Rheb-E40K: human Rheb protein with a lysine variant at residue 40 (E40K), SEQ ID NO. 5	completely unable to promote hydrolysis of GTP; also recorded: did not promote hydrolysis of GTP	increased mTORC1 signalling over both the empty vector and Rheb-WT	no reduction	mTOR localisation to the lysosome (overlap with LAMP1) [2]: promote localisation; also recorded: mTORC1 localisation at the lysosome is maintained; rate of IgG secretion determined daily over 10 days (ExpiCHO-S™ cells): maintain a constant rate of IgG secretion over a longer period; increase in secreted Gaussia luciferase [1]: 3 fold; ER stress response (Western blot markers) [3]: mild ER stress response; mTORC1 signalling (Western blot markers) [3]: increased mTORC1 signalling
Rheb-S21L: Rheb mutant S21L created by site-directed mutagenesis of human Rheb	completely unable to promote hydrolysis of GTP; also recorded: did not promote hydrolysis of GTP	increased mTORC1 signalling over both the empty vector and Rheb-WT	no reduction	–
Rheb-Y35N: human Rheb protein with an asparagine variant at residue 35 (Y35N), SEQ ID NO. 4	completely unable to promote hydrolysis of GTP; also recorded: did not promote hydrolysis of GTP	increased mTORC1 signalling over both the empty vector and Rheb-WT	no reduction	mTOR localisation to the lysosome (overlap with LAMP1) [2]: promote localisation; also recorded: strong mTOR localisation on lysosomes; increase in secreted Gaussia luciferase [1]: 3 fold; increase in synthesis of intracellular Firefly luciferase compared to the empty vector [4]: ca. 1.2 fold
